Here are results for 84 compounds from a melting point compilation (Tetko et al.; mined from patent text by program, amines drawn as free bases though some values may be those of a salt).

`COc1ccc(F)cc1C(C)(C)CC(O)(Cn1ncc(=O)c2ccccc21)C(F)(F)F` (centres undefined) had a melting point of 122 to 123 °C. The compound `CCC(=O)Nc1cc(-c2sc(C(C)O)nc2-c2cccc(C)c2)ccn1` (centres undefined) showed a melting point of 115 to 116 °C. In the case of `COc1cc2c(Nc3ccc4cn[nH]c4c3)c(C#N)cnc2cc1OCCN1CCOCC1` it was 133 to 135 °C; in that of `O=c1[nH]c2cc(Cl)cc(Cl)c2c(-c2cc(Cl)ccc2O)c1O`, 297 to 299 °C; in that of `Nc1nc2c3ccccc3ccn2n1`, 164 to 165 °C. `CC12CCC(C(=O)O)=CC1=CCC1C2CCC2(C)C(C(=O)Cc3ccccc3)CCC12` (centres undefined) yielded a melting point of 258 °C. The figure for `Cc1nc(C(C)C)nc(C)c1N1CCCn2c1nc1c(Cl)ccc(C(OC(F)F)C(F)(F)F)c12` (centres undefined) is 204 to 206 °C. Regarding `COc1ccc(CNC(SC)=C(C#N)C#N)cc1`, the melting point was 100 to 101 °C.

In turn, `Cc1ncccc1COc1ccc(Cn2cc(CCC(=O)O)c(-c3ccccc3)c2)cc1` showed a melting point of 158 to 159 °C. Consider `COC(=O)c1c(C(=O)OC)c(-c2ccc(OC)c(OC)c2)c2sccc2c1O`, for which the melting point fell in the range of 147 to 148 °C. As for `CC1CCCC(NC(CCc2ccccc2)C(=O)O)C(=O)N1CC(=O)O` (centres undefined), the melting point is 215 to 217 °C. The figure for `COc1cc2c(cc1OC)CN(c1c(C)c(C)c3c(c1C)C(c1ccc(C)cc1)C(C)(C)O3)C2` (centres undefined) is 156 to 159 °C.

Compound `O=C(C1=CNCCS1)c1ccc(F)cc1` returned a melting point of 212 to 214 °C. On to `NC(=O)c1cnc2cc(F)c(F)cc2c1`, for which the melting point turned out to be 261 °C. In the case of `COc1cc(C(=O)N2CCC(N3CCC(Oc4ccc(F)c(F)c4)CC3)C2)ccc1N` (centres undefined) it was 138 to 139 °C; in that of `COc1cc(CCC(=O)Nc2nc3ccccc3s2)ccc1C(=O)/C=C/C(=O)O`, 260 to 261 °C. In the case of `O=C(O)c1ccc2ccc(-c3ccccc3)cc2c1` it was 244 to 245 °C; in that of `Cc1nc2c(N)nc3ccccc3c2n1CCCCCCS(C)(=O)=O`, 202 to 206 °C. With `CCN(CC)C(=O)n1cc(C(F)F)c(S(=O)(=O)c2cc(Cl)cc(Cl)c2)n1`, the melting point was in the range of 112 to 113 °C.

For `CC(C)(C)OC(=O)NCCNC(=O)c1cc(Cl)cc(Cl)n1`, the melting point is 126 to 127 °C. The figure for `CCOC(=O)Cc1cn(C)c2cc(C3CC3)nn2c1=O` is 147 to 150 °C; for `COc1cc2nc(N3CCN(C(=O)CC(O)c4ccccc4)CC3)nc(N)c2cc1OC` (centres undefined) it is 222 °C; for `COc1ccc2c(c1)C(O)=C(C(=O)Nc1cncc(Cl)n1)N(C)S2(=O)=O` it is 289 to 291 °C. Take `CN1CC(CCN2C(=O)c3ccccc3C2=O)Oc2ncccc2C1=O` (centres undefined): the melting point was 146 to 147 °C. In the case of `CCOc1c(Br)ccc(C(=O)CC(=O)C2CC2)c1N(C)S(C)(=O)=O` it was 120 to 122 °C. Compound `COC(=O)c1cc(C(=O)c2c(C)c(OC)c3ccccn23)ccc1NC(=O)NCC(=O)N(C)C` had a melting point of 228 °C. On to `CCCc1c(O)c(C(C)=O)cc(I)c1OCC(O)COc1ccc2c(=O)cc(C(=O)O)oc2c1CCC` (centres undefined), for which the melting point lay in the range of 173 to 176 °C. `CCCOc1ccccc1-c1nc2nc(NCC(C)OC)ncc2c(=O)[nH]1` (centres undefined): the melting point fell in the range of 193 to 194 °C.

Regarding `C(#Cc1cccnc1)c1ccccc1`, the melting point is 42 to 43 °C. Turning to `CCOc1cc(Cc2cnc(N)nc2N)cc2c1OC(C)(C)C=C2`, the melting point was 184 to 186 °C. The compound `FC1(F)c2ccccc2Cc2ccccc2C1(F)F` had a melting point of 53.5 to 55 °C.

With `CCCC[C@@H]1CCc2ccc(OCc3ccc4ccccc4n3)cc2[C@H]1O`, the melting point is 58 to 59 °C. Consider `CC(c1ccc(-c2ccc(F)cc2)cc1)N1CCN(CCO)CC1` (centres undefined), for which the melting point fell in the range of 120 to 123 °C. The figure for `COc1cc(OC)c2ccccc2c1OC(C)=O` is 116 to 117 °C; for `CN1CC(=O)NC(=O)N1c1cc(Cl)c(Oc2ccc(S(C)(=O)=O)cc2)c(Cl)c1` it is 223 °C. The figure for `Cc1cc(C)cc(C(=O)N[C@H](Cc2ccccc2)C(=O)N[C@@H](Cc2c[nH]c3ccccc23)C(=O)O)c1` is 95 to 98 °C.

Regarding `C(=C\C1CCCCC1)/c1nc2ccccc2n1-c1ccccn1`, the melting point fell in the range of 105 to 106 °C. Compound `CC(C)(C)OC(=O)CN(C(=O)CN1C(=O)c2ccccc2C1=O)c1ccccc1Cc1ccccc1` displayed a melting point of 190 °C. The figure for `COC(=O)c1ccc(CC(C)NCC(O)c2ccccc2Cl)cc1` (centres undefined) is 109 to 110 °C; for `Cc1ccc2ccn3c(C(F)(F)F)nnc3c2c1` it is 205 to 206 °C. The compound `O=C(CC1CCOCC1)N[C@H]1CC[C@H](CCN2CCC(c3ccc(F)c4occc34)CC2)CC1` yielded a melting point of 188 °C. `CN(C)c1ccc(C(=O)NC2CCN(C(c3ccccc3)c3ccccc3)CC2)c([N+](=O)[O-])c1`: the melting point stood at 183 °C.

The compound `Cc1cccc(NC(c2ccccc2O)c2ccc3cccnc3c2O)n1` (centres undefined) came in with a melting point of 189 to 191 °C. Consider `O=C(Nc1ccc(OC(F)(F)F)cc1)NC1CCNCC1`, for which the melting point is 169 to 173 °C.

Compound `CCOP(=O)(Cc1ccc(C(=O)Nc2ccccc2C(=O)O)cc1)OCC` displayed a melting point of 171 to 172 °C. In the case of `CC(Cl)(Cl)C(NC(=O)c1cccc(Cl)c1)NC(=N[N+](=O)[O-])Nc1cccnc1` (centres undefined) it was 160 to 161 °C. Take `O=C1CCC(c2ccc(-c3ccccc3F)cc2)O1` (centres undefined): the melting point fell in the range of 74 to 75 °C. The compound `CC(=O)NCCCCCC1CCSS1` (centres undefined) yielded a melting point of 28 to 33 °C.

`Cc1ccc(S(=O)(=O)N2CCc3ccccc3C(Oc3cccc(C(F)(F)F)c3)C2)cc1` (centres undefined) returned a melting point of 112 to 114 °C.

`CS(=O)(=O)Nc1ccc(S(=O)(=O)N2CCNc3nc4ccccc4n3CC2)cc1` registered a melting point of 192 to 200 °C.

`COc1ccc(C(=O)c2c(C)oc3ccc([N+](=O)[O-])cc23)cc1` yielded a melting point of 167 °C. The figure for `CC(C)c1cc(C#N)cc(C(=O)Nc2ccn(C)n2)n1` is 174 °C; for `CCOC(=O)C1=C(C)NC(C)=C(C(=O)OCC)C1c1ccccc1/C=C/C(=O)OC1CCCCC1` it is 175 to 177 °C; for `CN1CC(c2cccc(C(F)(F)F)c2)C(=O)C(c2ccccc2Cl)C1` (centres undefined) it is 90 to 92 °C. In the case of `COC(=O)C1=C(C)NC(C)=C(C(=O)OCCN2CCC(c3ccccc3)CC2)C1c1cccc([N+](=O)[O-])c1` (centres undefined) it was 159 to 160 °C. In the case of `O=C1CSc2nc(Nc3ccc(N4CCOCC4)cc3)ncc2N1` it was 288 to 290 °C; in that of `COC(=O)C(Oc1ccc(F)cc1)c1ccc(Oc2ccc(S(C)(=O)=O)cc2)cc1` (centres undefined), 135 to 137 °C. Consider `Cc1c(N2CC[C@@H](O)[C@H](C)C2)c(F)cc2c(=O)c(C(=O)O)cn(C3CC3)c12` (relative stereo), for which the melting point fell in the range of 206 to 210 °C.

Turning to `Cc1c(OCC(F)(F)F)ccnc1CSc1nc2ccccc2n1NCCCO`, the melting point fell in the range of 113 to 114 °C.

On to `CN(C(=O)CC(CCN1CCC(Cc2ccccc2)CC1)c1ccc(Cl)c(Cl)c1)c1ccc(Cl)cc1` (centres undefined), for which the melting point fell in the range of 67 to 72 °C.

`Cc1csc(-c2nc(COc3ccc(CCCCn4ccnc4)cc3)co2)c1` returned a melting point of 77 to 78 °C. In turn, `O=C1N(Cc2cnccn2)c2ccccc2C12COc1cc3c(cc12)OCCO3` (centres undefined) yielded a melting point of 216 to 218 °C.

As for `O=C(CCCc1ccccc1)N[C@H](Cc1ccc(C(F)(F)F)cc1)[C@@H](O)c1ccc(F)cc1` (racemic), the melting point is 150 to 151 °C.

With `COC1(c2cccc(Sc3ccc4c(ccc(=O)n4CC(F)(F)F)c3)c2)CCOCC1`, the melting point was 138 to 140 °C.

`O=[N+]([O-])c1ccc(C(c2cccs2)C(Cc2cccs2)N2CCC(Cc3ccccc3)CC2)cc1` (centres undefined) had a melting point of 124 to 126 °C.

`CCCC1CCC(c2cc(F)c(C(F)(F)Oc3ccc(-c4cc(F)c(C(F)(F)F)c(F)c4)c(F)c3)c(F)c2)OC1` (centres undefined) came in with a melting point of 95 °C. Take `O=C(O)CS(=O)(=O)c1cccc(-c2nc(=O)c3ccccc3s2)n1`: the melting point was in the range of 192 to 194 °C. Turning to `CC1CC2C3CC(Cl)C4=CC(=O)C=CC4(C)C3C(O)CC2(C)C1C(=O)CO` (centres undefined), the melting point was 128 °C. The figure for `O=C(NC1CCCC1)c1ccccc1C(c1ccc(O)cc1)c1ccc(O)cc1` is 148 to 150 °C; for `Cc1nccn1-c1nc(-c2ccc(Cl)cc2)c(CCCCO)s1` it is 98 to 99 °C; for `Cn1ccnc1Sc1ccc(Nc2c(C#N)cnc3cc(N4CCC(N5CCCC5)CC4)c([N+](=O)[O-])cc23)cc1Cl` it is 220 to 230 °C.

Turning to `CCOC(=O)C(=O)C(C#N)c1ccc(Cl)cc1` (centres undefined), the melting point was 135 to 136 °C. Take `COC(=O)[C@H](Cc1ccccc1)Oc1c(C)cc(-c2c3ccccc3c(Br)c3sc(C)c(C)c23)cc1C`: the melting point lay within 134 to 139 °C. In the case of `CC(c1cccc2c1C(=O)NS2(=O)=O)[Si](C)(C)C` (centres undefined) it was 123 to 125 °C. In the case of `Cc1c(F)c(N2CCC(N)C2)c(C)c2c1c(=O)c(C(=O)O)cn2C1CC1` (centres undefined) it was 96 to 98 °C; in that of `CS(=O)(=O)c1ccc(C2=C(Br)C(=O)C3(CCCCC3)O2)cc1`, 163 to 164 °C; in that of `CC(=O)N(C)c1cccc(S(=O)(=O)c2ccc(N)cc2)c1`, 178 to 180 °C. In the case of `O=C(O)COc1cccc2c1CCc1sc(S(=O)(=O)C(c3ccccc3)c3ccccc3)nc1-2` it was 219 to 221 °C.

For the compound `NC(=O)c1cc2ccc(F)cc2nc1N`, the melting point lay in the range of 259 to 262 °C.

`CC(C)C1(C)NC(c2ccc(CO)cn2)=NC1=O` (centres undefined): the melting point lay in the range of 101 to 104 °C. Compound `CC(C)Cn1c(CNC(=O)OC(C)(C)C)c(-c2cccs2)c2cc(O)ccc2c1=O` yielded a melting point of 216 to 217 °C. Turning to `CCOC(=O)/C(=N\O[C@H]1CCC[C@@H](C)C1)c1csc(N)n1` (relative stereo), the melting point fell in the range of 91 to 93 °C. Consider `CN(C)C(=O)C(=O)c1ccc(Cl)cc1C(=O)c1ccccc1`, for which the melting point was 88 to 90 °C.

Regarding `CC1(CNC(=O)CCl)OCCc2c1[nH]c1ccccc21` (centres undefined), the melting point lay within 186 to 187 °C.
